US20030134859A1 (SANKYO COMPANY, LIMITED, priority 2000, published 2003)
pIC50: −log10 of the molar value.

target: T1, human PPAR γ 2 (Homo sapiens, UniProt P37231); assay: Inhibitory activity against PPAR γ transcription in the presence of agonist compound A, luciferase reporter; type: cell-based; conditions: in the presence of 10 nM compound A (agonist); MG63 cells transfected with pSG5-hPPARg and pGV-P2-PPRE; 24 hr
T1 construct: expressed in transfected cells; host or cells: human osteosarcoma MG63, transiently co-transfected with pSG5-hPPARg and the reporter pGV-P2-PPRE
T1 sequence (P37231 1-505): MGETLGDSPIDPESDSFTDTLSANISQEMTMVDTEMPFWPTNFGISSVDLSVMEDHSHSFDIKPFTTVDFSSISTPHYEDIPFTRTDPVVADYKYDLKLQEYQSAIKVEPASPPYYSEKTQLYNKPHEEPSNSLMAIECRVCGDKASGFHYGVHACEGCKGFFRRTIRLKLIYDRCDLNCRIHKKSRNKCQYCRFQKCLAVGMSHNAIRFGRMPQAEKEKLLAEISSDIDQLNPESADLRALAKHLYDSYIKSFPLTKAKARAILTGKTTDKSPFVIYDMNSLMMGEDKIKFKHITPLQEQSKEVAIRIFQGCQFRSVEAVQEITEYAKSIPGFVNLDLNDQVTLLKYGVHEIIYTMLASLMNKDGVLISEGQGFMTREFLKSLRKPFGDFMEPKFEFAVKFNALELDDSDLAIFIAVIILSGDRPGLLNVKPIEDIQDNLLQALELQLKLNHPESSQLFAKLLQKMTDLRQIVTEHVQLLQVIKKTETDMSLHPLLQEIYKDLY

Molecule | pIC50
O=C(Nc1ccc(Cl)nn1)c1cc([N+](=O)[O-])ccc1Cl [Example 89] | 6.40
Cc1nnc(NS(=O)(=O)c2ccc(NC(=O)c3cc([N+](=O)[O-])ccc3Cl)cc2)s1 [Example 101, N-[4-[(5-Methyl-[1,3,4]thiadiazol-2-yl)aminosulfonyl]phenyl]-(2-chloro-5-nitrophenyl)carboxamide] | 7.21
Cc1noc(NS(=O)(=O)c2ccc(NC(=O)c3cc([N+](=O)[O-])ccc3Cl)cc2)c1C [Example 104, N-[4-[(3,4-Dimethylisoxazol-6-yl)aminosulfonyl]phenyl]-(2-chloro-5-nitrophenyl)carboxamide] | 6.57
CC(=O)Nc1ccc(-c2ccc(NC(=O)c3cc([N+](=O)[O-])ccc3Cl)cc2)cc1 [Example 118, N-[4-(4-Acetylaminophenyl)phenyl]-(2-chloro-5-nitrophenyl)carboxamide] | 8.07
O=C(Nc1ccc(-c2ccc(NC(=O)c3cc([N+](=O)[O-])ccc3Cl)cc2)cc1)c1ccccc1 [Example 120, N-[4-(4-Benzoylaminophenyl)phenyl]-(2-chloro-5-nitrophenyl)carboxamide] | 7.89
O=C(Nc1ccc(-c2ccc(NC(=O)c3cc([N+](=O)[O-])ccc3Cl)cc2)cc1)c1cccnc1 [Example 124, N-[4-[4-(Pyridin-3-ylcarbonylamino)phenyl]phenyl]-(2-chloro-5-nitrophenyl)carboxamide] | 8.09
O=C(Nc1ccc(-c2ccc(NC(=O)c3cc([N+](=O)[O-])ccc3Cl)cc2)cc1)c1ccncc1 [Example 126, N-[4-[4-(Pyridin-4-ylcarbonylamino)phenyl]phenyl]-(2-chloro-5-nitrophenyl)carboxamide] | 7.85
O=C(Nc1ccc(NS(=O)(=O)c2ccccc2)cc1)c1cc([N+](=O)[O-])ccc1Cl [Example 127, N-(4-Benzenesulfonylaminophenyl)-(2-chloro-5-nitrophenyl)carboxamide] | 7.96
CCS(=O)(=O)Nc1ccc(-c2ccc(NC(=O)c3cc([N+](=O)[O-])ccc3Cl)cc2)cc1 [Example 130, N-[4-(4-Ethanesulfonylaminophenyl)phenyl]-(2-chloro-5-nitrophenyl)carboxamide] | 7.96
O=C(Nc1cnccn1)c1cc([N+](=O)[O-])ccc1Cl [Example 140, N-(Pyrazin-2-yl)-(2-chloro-5-nitrophenyl)carboxamide] | 6.96
O=C(Nc1ccc(S(=O)(=O)N2CCCCC2)cc1)c1cc([N+](=O)[O-])ccc1Cl [Example 151, N-[4-(Piperidyisulfonyl)phenyl]-(2-chloro-5-nitrophenyl)carboxamide] | 7.92
O=C(Nc1ccc(S(=O)(=O)N2CCOCC2)cc1)c1cc([N+](=O)[O-])ccc1Cl [Example 153, N-[4-(Morpholin-4-ylsulfonyl)phenyl]-(2-chloro-5-nitrophenyl)carboxamide] | 7.31
CC(=O)c1ccc(NC(=O)c2cc([N+](=O)[O-])ccc2Cl)cc1 [Example 155, N-(4-Acetylphenyl)-(2-chloro-5-nitrophenyl)carboxamide] | 8.01
CC(=O)c1cccc(NC(=O)c2cc([N+](=O)[O-])ccc2Cl)c1 [Example 156, N-(3-Acetylphenyl)-(2-chloro-5-nitrophenyl)carboxamide] | 7.00
O=C(Nc1ccc(C(=O)N2CCCCC2)cc1)c1cc([N+](=O)[O-])ccc1Cl [Example 159, N-[4-(Piperidylcarbonyl)phenyl]-(2-chloro-5-nitrophenyl)carboxamide] | 7.96
O=C(Nc1ccc(-n2ccnc2)cc1)c1cc([N+](=O)[O-])ccc1Cl [Example 174, N-[4-(Imidazol-1-yl)phenyl]-(2-chloro-5-nitrophenyl)carboxamide] | 8.03
CC(C)(C)c1cc(NS(=O)(=O)c2ccc(NC(=O)c3cc([N+](=O)[O-])ccc3Cl)cc2)cc(C(C)(C)C)c1O [Example 175, N-[4-[(3,5-di-tert-Butyl-4-hydroxyphenyl)aminosulfonyl]phenyl]-(2-chloro-5-nitrophenyl)carboxamide] | 7.00
O=C(Nc1ccc(-c2ccc(N3CCCCC3)cc2)cc1)c1cc([N+](=O)[O-])ccc1Cl [Example 177, N-[4-[4-(Piperidin-1-yl)phenyl]phenyl]-(2-chloro-5-nitrophenyl)carboxamide] | 7.03
CCCCCCN(CC)c1ccc(NC(=O)c2cc([N+](=O)[O-])ccc2Cl)cc1 [Example 188, N-[4-(N-Ethyl-N-hexylamino)phenyl]-(2-chloro-55 nitrophenyl)carboxamide] | 7.48
CC(C)(C)OC(=O)Nc1ccc(-c2csc(NC(=O)c3cc([N+](=O)[O-])ccc3Cl)n2)cc1 [Example 190, N-[4-(4-tert-Butoxycarbonylaminophenyl)thiazol-2-yl]-(2-chloro-5-nitrophenyl)carboxamide] | 7.44
CCCN(CCC)c1ccc(-c2ccc(NC(=O)c3cc([N+](=O)[O-])ccc3Cl)cc2)cc1 [Example 194, N-[4-[4-(N,N-Dipropylamino)phenyl]phenyl]-(2-chloro-5-nitrophenyl)carboxamide] | 6.48
N-[3-(Pyrrolidinylsulfonyl)phenyl]-(2-chloro-5-nitrophenyl)carboxamide [Example 154] | 7.09
N-[4-(4-Methylbenzoylamino)phenyl]phenyl]-(2-chloro-5-nitrophenyl)carboxamide [Example 122] | 8.12
N-[4-(Benzenesulfonylaminophenyl)phenyl]-(2-chloro-5-nitrophenyl)carboxamide [Example 128] | 7.46
N-[4-[4-(Pyrrolidin-1-ylamino)phenyl]phenyl]-(2-chloro-5-nitrophenyl)carboxamide [Example 171] | 7.32
